# Reference: patent publication US10407399B2, “Ion-activated photolabile compounds” (HOWARD HUGHES MEDICAL INSTITUTE, priority 2015, dated 2019)
# Several values for one entry are separate records, joined by “and”; a condition that tells them apart may be missing. Identical values can stand only once.
# Experiments:
# [1] = Determination of Kd from fluorescence after photoactivation as a function of [Ca^2+]; type: binding; details: methoxy replaced with pyrrolidine, versus 402; readout not stated
# Method: (§1) All measurements were taken at ambient temperature (23±2° C.). […] Spectroscopy was performed using 1-cm path length quartz or polymethacrylate cuvettes (Starna or Fisher). Absorption measurements were recorded on a Cary Model 100 spectrometer (Varian). Fluorescence measurements spectra were recorded on a Cary Eclipse fluorometer (Varian). Buffer pH was adjusted with KOH. Curve fitting was accomplished with GraphPad Prism 5.
# For [Ca^2+]<40 μM, the free calcium concentration was controlled by a commercial EGTA buffer system (Invitrogen). […] For [Ca^2+]>40 μM, buffers were prepared with 1 mM EGTA and excess CaCl2 in 30 mM MOPS pH 7.2 and 100 mM KCl. Different buffer solutions containing 100 nM of 402 or S13 were irradiated in clean glass vials for 1 min using the photoreactor setup described above. The samples were then transferred to a black, clear bottom, 96-well polystyrene microplate with a nonbinding surface coating (Corning). Fluorescence was read from the bottom on a FlexStation3 fluorescence microplate reader (Molecular Devices; for coumarin 402: λex/λem=402/447 nm; for Tokyo Green compound S13: λex/λem=496/520 nm). The plot of fluorescence vs. [Ca^2+] was fit to one site-specific binding curve to determine the Kd. Found: 28.3±0.6 μM (±SE) for 402 and 28.0±0.8. μM for S13.
# [2] = Absorption spectrum in buffers containing varying [Ca^2+]; type: physicochemical
# Description: The absorption spectrum of 402 was first examined in buffers containing varying [Ca^2+] (FIG. 19A). […] A small (<5%) but significant increase in absorption around 350 nm was also observed when calcium ion concentration is raised. However, the coumarin moiety dominates absorption in the UV with an extinction coefficient (e)=2.4×10^4 M^−1 cm^−1 at 350 nm. These absorbance changes indicate that chelation of calcium causes a switch from the colored quinoid form to the UV-absorbing aromatic form (FIG. 3).
# as §1
# [3] = Determination of photochemical quantum yield (365 nm irradiation, fluorescence of released fluorophore); type: physicochemical; details: for photochemical quantum yield (Φ) in the presence of Ca^2+: 10 mM CaCl2, 30 mM MOPS pH 7.2, 100 mM KCl; for photochemical quantum yield (Φ) in the presence of Ca^2+ / photochemical quantum yield (Φ) in the absence of Ca^2+: 365 nm; for photochemical quantum yield (Φ) in the absence of Ca^2+: 10 mM EGTA, 30 mM MOPS pH 7.2, 100 mM KCl; for enhancement in photochemical quantum yield upon Ca^2+ binding: presence vs absence of Ca^2+
# Method: as §1
# Photochemistry was performed in 1-cm path length/3.5 mL quartz cuvettes (Starna) in a Luzchem LZC 4V photoreactor equipped with 365 nm UV lamps, a carousel, and a timer. The irradiation was determined by potassium ferrioxalate actinometry.^3 A solution of 60 mM K3Fe(C2O4)3 was irradiated using the photoreactor setup. Released Fe^2+ was determined by complexometry with 1,10 phenanthroline. Using the known photochemical quantum yield of this process, we determined the photon flux (I)=[…]. Samples (10 μM, 3.5 mL) were irradiated in either zero calcium buffer (30 mM MOPS pH 7.2, 10 mM EGTA, 100 mM KCl) or calcium-containing buffer (30 mM MOPS pH 7.2, 10 mM CaCl2, 100 mM KCl) and a small aliquot (30 μL) was removed and diluted 100-fold in matching buffer. The fluorescence of these samples was then measured (coumarin 402: λex/λem=402/447 nm; Tokyo Green compound S13: λex/λem=496/520 nm). The quantum yield (Φ, mol/ein) was determined by fitting a plot of fluorescence vs. irradiation time to a one-phase association described by equation 1: Ft=Fmax−Fmax(e^−IσΦt) (1) where Fmax=maximal fluorescence, t=time (min), Ft=fluorescence at time t, I=irradiation (ein/min·cm^2), and σ=decadic extinction coefficient (cm^2/mol; 1000-fold higher than the value with units of M^−1 cm^−1 based on cuvette geometry). For compound 402 we determined Φ=4.8±0.2% (mean±SE) in the presence of 10 mM Ca^2+ and Φ=0.0079±0.0003% in the presence of 10 mM EGTA (FIG. 19B). For compound S13 we found Φ=1.63±0.05% in the presence of 10 mM Ca^2+ and Φ=0.0110±0.0004% in the presence of 10 mM EGTA (FIG. 20A).
# [4] = tested on: cultured neurons; test: Light-gated integration of Ca^2+ evoked by electrical stimulation; type: cell-based, rat; details: for rate k of increase in cellular fluorescence versus irradiation time: n=20
# Method: The present compound was then utilized to measure calcium ion changes in neurons evoked by electrical activity. Low-affinity reversible Ca^2+ indicators are advantageous for use in biological systems as their low buffering capacity preserves native calcium ion dynamics. Nevertheless, poor signal-to-background ratios of such indicators may restricts their utility to subcellular compartments undergoing extremely high calcium flux (e.g., dendritic spines). […] Cells were incubated with AM ester 403 and subjected to the photoactivation imaging protocol. In one population of cells neuronal action potential firing was elicited by field stimulation at 80 Hz.
# (§2) HEK293T/17 cells (ATCC) were cultured according to instructions in poly-D-lysine-coated 24-well CellBind plates (Corning) in Dulbecco's modified eagle medium (DMEM; Invitrogen) supplemented with 10% v/v fetal bovine serum (FBS; Invitrogen) and maintained at 37° C. in a humidified 5% CO2 v/v environment. Primary rat hippocampal neurons were prepared and cultured as described previously. Imaging buffer for HEK293T/17 cells consisted of Dulbecco's phosphate buffered saline (DPBS; Invitrogen). Imaging buffer for cultured neurons consisted of: 145 mM NaCl, 2.5 KCl, 10 mM glucose, 10 mM HEPES pH 7.4, 2 mM CaCl2, and 1 mM MgCl2. To load cells with the dosimeter, a stock solution of 403 (1 mM) in DMSO containing 10% w/v Pluronic F-127 (Sigma) was added to a final concentration of 10 μM in imaging buffer. Cells were incubated in this solution for 1 h at 37° C., after which the cells were washed with imaging buffer (3×) and imaged. The final imaging buffer wash for cultured neurons additionally contained pharmacological agents (10 μM CNQX, 10 μM (R)-CPP, 10 μM gabazine, and 1 mM (S)-MCPG; Tocris) to block spontaneous cellular activity.
# (§3) Cells were imaged on a Olympus IX-81 microscope using a 10× or 20× objective and a DAPI filter set (Semrock DAPI-5060C-000; excitation: 352-402 nm, dichroic cutoff: 409 nm, emission: 417-477 nm) filtering a mercury arc lamp. Excitation/photoactivation light was attenuated using a neutral density filter giving a light intensity of 60 mW/cm^2. To raise intracellular calcium ion levels (FIGS. 19B, 21B, and 22B), cells were incubated with 10 μM ionomycin (Sigma) and 4 mM CaCl2 for 2 min prior to imaging.
# Cultured neurons loaded with compound 403 were stimulated electrically to induce action potential firing at 80 Hz for one second prior to and during illumination with excitation/photoactivation light. A Grass S48 Stimulator (Grass Technologies) was used with a custom-built platinum wire field stimulation electrode.
# [5] = tested on: cultured hippocampal neurons; test: Live cell photoactivation imaging of neurons with or without ionomycin; type: cell-based, rat; details: for rate k of cellular fluorescence increase versus irradiation time: 10 μM, 1 h loading, 365 nm
# Method: The utility of the embodied system was then observed in a cellular context. The hexa-acetoxymethyl (AM) ester 403 of compound 402 was prepared (FIG. 8). This membrane-permeant compound enabled loading of cultured hippocampal neurons with the light-gated chemodosimeter. The overlap of the photouncaging wavelength (λ=351 nm) and the excitation spectra (λmax=402 nm) of the coumarin allowed simultaneous imaging and activation with a single light source centered at 365 nm.
# as §2, §3
structure (smiles),measurement,setting,value
"O=C(O)CN(CC(=O)O)c1ccc(N2CCCC2)cc1OCCOc1cc([N+](=O)[O-])c(COc2ccc3cc(C(=O)NC4CCC(N(CC(=O)O)CC(=O)O)CC4)c(=O)oc3c2)cc1N(CC(=O)O)CC(=O)O (stereo not shown) [compound of FIG. 14, where R═H, 2,2′-((2-(2-(2-(Bis(carboxymethyl)amino)-4-(((3-(((1r,4r)-4-(bis(carboxymethyl)amino)cyclohexyl)carbamoyl)-2-oxo-2H-chromen-7-yl)oxy)methyl)-5-nitrophenoxy)ethoxy)-4-(pyrrolidin-1-yl)phenyl)azanediyl)diacetic acid]",effect of the modification on calcium affinity,[1],did not increase
"COc1ccc(N(CC(=O)O)CC(=O)O)c(OCCOc2cc([N+](=O)[O-])c(COc3ccc4cc(C(=O)NC5CCC(N(CC(=O)O)CC(=O)O)CC5)c(=O)oc4c3)cc2N(CC(=O)O)CC(=O)O)c1 (stereo not shown) [compound 402, 2,2′((2-(2-(2-(Bis(carboxymethyl)amino)-4-(((3-(((1r,4r)-4-(bis(carboxymethyl)amino)cyclohexyl)carbamoyl)-2-oxo-2H-chromen-7-yl)oxy)methyl)-5-nitrophenoxy)ethoxy)-4-methoxyphenyl)azanediyl)diacetic acid]",increase in absorption around 350 nm when calcium ion concentration is raised,[2],< 5%
same,visible absorption at 430 nm as [Ca^2+] increases,[2],dramatic decrease
same,extinction coefficient,[2]; at 350 nm,24000 M⁻¹ cm⁻¹
same,photochemical quantum yield (Φ) in the presence of Ca^2+,[3],4.8% and 4.8±0.2%
same,photochemical quantum yield (Φ) in the absence of Ca^2+,[3],0.008% and 0.0079±0.0003%
same,Ca^2+ dependence of uncaging photochemistry,"[3]; fluorescence of released coumarin vs 365 nm irradiation time, 10 mM CaCl2 or 10 mM EGTA",efficient photochemistry was observed only in the presence of calcium
same,enhancement in photochemical quantum yield upon Ca^2+ binding,[3],600 fold
"COc1ccc(-c2c3ccc(=O)cc-3oc3cc(OCc4cc(N(CC(=O)O)CC(=O)O)c(OCCOc5cc(OC)ccc5N(CC(=O)O)CC(=O)O)cc4[N+](=O)[O-])ccc23)c(C)c1 [compound S13, 2,2′-((2-(2-(2-(Bis(carboxymethyl)amino)-4-(((9-(4-methoxy-2-methylphenyl)-3-oxo-3H-xanthen-6-yl)oxy)methyl)-5-nitrophenoxy)ethoxy)-4-methoxyphenyl)azanediyl)diacetic acid]",photochemical quantum yield (Φ) in the presence of Ca^2+,[3],1.6% and 1.63±0.05%
same,photochemical quantum yield (Φ) in the absence of Ca^2+,[3],0.011% and 0.0110±0.0004%
same,enhancement in photochemical quantum yield upon Ca^2+ binding,[3],150 fold
"COc1ccc(N(CC(=O)OCOC(C)=O)CC(=O)OCOC(C)=O)c(OCCOc2cc([N+](=O)[O-])c(COc3ccc4cc(C(=O)N[C@H]5CC[C@H](N(CC(=O)OCOC(C)=O)CC(=O)OCOC(C)=O)CC5)c(=O)oc4c3)cc2N(CC(=O)OCOC(C)=O)CC(=O)OCOC(C)=O)c1 [compound 403, Bis(acetoxymethyl) 2,2′-((2-(2-(2-(bis(2-(acetoxymethoxy)-2-oxoethyl)amino)-4-(((3-(((1r,4r)-4-(bis(2-(acetoxymethoxy)-2-oxoethyl)amino)cyclohexyl)carbamoyl)-2-oxo-2H-chromen-7-yl)oxy)methyl)-5-nitrophenoxy)ethoxy)-4-methoxyphenyl)azanediyl)diacetate]",permanent increase in cellular fluorescence,[4]; field stimulation at 80 Hz,200%
same,rate increase in cellular fluorescence relative to unstimulated cells,[4]; field stimulation at 80 Hz,4 fold
same,rate k of increase in cellular fluorescence versus irradiation time,[4]; with field stimulation at 80 Hz,0.133 s⁻¹
same,rate k of increase in cellular fluorescence versus irradiation time,[4]; without electrical stimulation,0.0325 s⁻¹
same,increase in the accumulation of cellular fluorescence,[5]; cells pretreated with ionomycin vs control cells,40 fold
same,fluorescence increase on illumination of control cells,[5]; control cells without ionomycin,did not elicit significant fluorescence increase
same,rate k of cellular fluorescence increase versus irradiation time,[5]; ionomycin-treated neurons,0.240 s⁻¹
same,rate k of cellular fluorescence increase versus irradiation time,[5]; untreated neurons,0.0060 s⁻¹
